Results published in paper PMC8155022 (Scientific Reports, 2021).
Where two headings read alike, the source gives them in different places.

Legend:
5-HT2A (h) = target: T1, 5-HT2A (h) (Homo sapiens, UniProt P28223); assay: Cerep panel; assay type: binding
T1 construct: purchased Cerep (receptors, ion channels, transporters); Eurofins Panlabs (kinases)
Procedure: (§2) A panel of 52 different receptors, ion channels and transporters was tested by Cerep, Inc. (Redmond, WA).

RXRα = target: T2, RXRα (Homo sapiens, UniProt P19793); assay: nuclear receptor cellular GAL4 reporter assay; assay type: cell-based; conditions: agonist and antagonist mode; read-out: potency in agonist and antagonist mode
T2 construct: expressed in transfected cells

[1] = target: T3, mu (h) (MOP) (agonist site) (Homo sapiens, UniProt P35372); assay: Cerep panel; assay type: binding
T3 construct: purchased Cerep (receptors, ion channels, transporters); Eurofins Panlabs (kinases)
Procedure: as §2

rat bone marrow = assay: in vivo rat micronucleus test on bone marrow
VDR = target: T4, VDR (Homo sapiens, UniProt P11473); assay: nuclear receptor cellular GAL4 reporter assay; assay type: cell-based; conditions: agonist and antagonist mode; read-out: potency in agonist and antagonist mode
T4 construct: expressed in transfected cells

CLK2(h) = target: T5, CLK2(h) (Homo sapiens, UniProt P49760); assay: Kinase panel; assay type: biochemical
T5 construct: purchased Cerep (receptors, ion channels, transporters); Eurofins Panlabs (kinases)
Procedure: (§3) Kinase selectivity was conducted by Eurofins Panlabs Inc (St Charles, MO).

H2 (h) = target: T6, H2 (h) (Homo sapiens, UniProt P25021); assay: Cerep panel; assay type: binding
T6 construct: purchased Cerep (receptors, ion channels, transporters); Eurofins Panlabs (kinases)
Procedure: as §2

CaMKIIβ(h) = target: T7, CaMKIIβ(h) (Homo sapiens, UniProt Q13554); assay: Kinase panel; assay type: biochemical
T7 construct: purchased Cerep (receptors, ion channels, transporters); Eurofins Panlabs (kinases)
T7 sequence (Q13554 whole entry): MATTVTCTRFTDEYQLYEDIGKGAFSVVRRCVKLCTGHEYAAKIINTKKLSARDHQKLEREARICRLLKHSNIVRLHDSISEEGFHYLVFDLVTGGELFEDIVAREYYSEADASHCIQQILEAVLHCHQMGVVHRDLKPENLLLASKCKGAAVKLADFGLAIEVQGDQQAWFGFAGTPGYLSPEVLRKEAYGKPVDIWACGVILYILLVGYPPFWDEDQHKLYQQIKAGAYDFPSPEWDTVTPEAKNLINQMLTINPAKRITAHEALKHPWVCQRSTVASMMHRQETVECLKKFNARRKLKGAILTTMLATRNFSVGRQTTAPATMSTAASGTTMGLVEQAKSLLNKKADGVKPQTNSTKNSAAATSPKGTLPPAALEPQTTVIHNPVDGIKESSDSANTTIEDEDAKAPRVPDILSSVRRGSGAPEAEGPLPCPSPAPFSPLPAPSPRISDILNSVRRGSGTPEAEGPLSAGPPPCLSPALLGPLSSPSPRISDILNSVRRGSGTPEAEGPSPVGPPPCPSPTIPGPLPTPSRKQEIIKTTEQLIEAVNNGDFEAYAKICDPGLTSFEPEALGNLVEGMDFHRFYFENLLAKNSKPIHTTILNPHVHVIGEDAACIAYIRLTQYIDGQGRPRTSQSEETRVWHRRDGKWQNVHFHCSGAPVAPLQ
Procedure: as §3

ETA (h) = target: T8, ETA (h) (Homo sapiens, UniProt P25101); assay: Cerep panel; assay type: binding
T8 construct: purchased Cerep (receptors, ion channels, transporters); Eurofins Panlabs (kinases)
T8 sequence (P25101 21-427): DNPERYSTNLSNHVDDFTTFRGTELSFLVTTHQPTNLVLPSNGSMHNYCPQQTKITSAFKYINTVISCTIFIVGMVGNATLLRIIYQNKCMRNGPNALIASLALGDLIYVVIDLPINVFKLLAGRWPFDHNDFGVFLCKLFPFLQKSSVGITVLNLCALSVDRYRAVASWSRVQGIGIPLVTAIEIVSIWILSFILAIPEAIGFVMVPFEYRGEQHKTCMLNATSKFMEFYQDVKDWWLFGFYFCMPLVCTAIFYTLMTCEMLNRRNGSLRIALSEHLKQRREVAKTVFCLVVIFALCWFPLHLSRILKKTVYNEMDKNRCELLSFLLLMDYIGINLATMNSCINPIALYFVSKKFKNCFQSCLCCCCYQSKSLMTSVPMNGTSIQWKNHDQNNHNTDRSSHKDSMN
Procedure: as §2

5-HT1B = target: T9, 5-HT1B (Rattus norvegicus, UniProt P28564); assay: Cerep panel; assay type: binding
T9 construct: purchased Cerep (receptors, ion channels, transporters); Eurofins Panlabs (kinases)
Procedure: as §2

[2] = tested on: human CD4+ T cells under Th17 differentiation; assay: in vitro human Th17 differentiation, cytokine production
Procedure: On day 4, supernatants were analyzed for IL-17A, IL-17F, IL-22 and IFNγ production.
Total CD4^+ T cells were isolated from peripheral blood mononuclear cells (PBMCs) of healthy donors using a CD4^+ T cell Isolation Kit II (Miltenyl Biotec, Auburn, CA), following the manufacturer’s instructions.
In vitro human Th17 and Th1 differentiation
Total CD4+ T cells were isolated from the peripheral blood mononuclear cells (PBMCs) of healthy donors
using a CD4+ T cell Isolation Kit II (Miltenyl Biotec, Auburn, CA), following the manufacturer’s
instructions. Isolated T cells were resuspended in culture medium and added to a 96-well plate at 1×105
beads (prepared using human T cell activation/expansion kit, Miltenyi Biotec) at final concentration of
3x10^6/mL, and cocktail for either Th17 differentiation (10 µg/mL anti-IL-4, 10 µg/mL anti-IFN, 10 ng/mL
IL-1β, 10 ng/mL IL-23, 50 ng/mL IL-6, 3 ng/mL TGFβ and 20 U/mL IL-2), or for Th1 differentiation (10
µg/mL anti-IL-4, 10 ng/mL IL-12, and 20 U/mL IL-2). Cells were cultured at 37°C and 5% CO2 for 3 days.
Supernatants were assayed for accumulated cytokines using MSD multi-spot assay (Meso Scale
Discovery, Rockville, MD) or R&D ELISA kit.

M3 (h) = target: T10, M3 (h) (Homo sapiens, UniProt P20309); assay: Cerep panel; assay type: binding
T10 construct: purchased Cerep (receptors, ion channels, transporters); Eurofins Panlabs (kinases)
T10 sequence (P20309 whole entry): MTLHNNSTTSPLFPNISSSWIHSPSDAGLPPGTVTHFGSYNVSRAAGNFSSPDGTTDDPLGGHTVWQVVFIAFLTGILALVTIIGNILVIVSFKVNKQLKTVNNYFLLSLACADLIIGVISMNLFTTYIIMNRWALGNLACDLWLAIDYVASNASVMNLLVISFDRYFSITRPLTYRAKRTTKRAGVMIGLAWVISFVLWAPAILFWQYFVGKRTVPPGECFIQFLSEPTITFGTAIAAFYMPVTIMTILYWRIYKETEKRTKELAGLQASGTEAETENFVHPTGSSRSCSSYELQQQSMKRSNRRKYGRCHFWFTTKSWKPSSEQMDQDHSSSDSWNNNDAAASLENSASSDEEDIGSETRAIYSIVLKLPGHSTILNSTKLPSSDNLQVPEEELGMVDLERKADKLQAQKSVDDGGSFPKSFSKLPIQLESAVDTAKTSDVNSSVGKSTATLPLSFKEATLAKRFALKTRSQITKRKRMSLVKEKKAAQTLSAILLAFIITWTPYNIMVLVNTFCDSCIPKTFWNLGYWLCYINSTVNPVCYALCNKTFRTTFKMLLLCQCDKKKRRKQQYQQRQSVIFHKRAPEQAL
Procedure: as §2

PAK4(h) = target: T11, PAK4(h) (Homo sapiens, UniProt O96013); assay: Kinase panel; assay type: biochemical
T11 construct: purchased Cerep (receptors, ion channels, transporters); Eurofins Panlabs (kinases)
T11 sequence (O96013 whole entry): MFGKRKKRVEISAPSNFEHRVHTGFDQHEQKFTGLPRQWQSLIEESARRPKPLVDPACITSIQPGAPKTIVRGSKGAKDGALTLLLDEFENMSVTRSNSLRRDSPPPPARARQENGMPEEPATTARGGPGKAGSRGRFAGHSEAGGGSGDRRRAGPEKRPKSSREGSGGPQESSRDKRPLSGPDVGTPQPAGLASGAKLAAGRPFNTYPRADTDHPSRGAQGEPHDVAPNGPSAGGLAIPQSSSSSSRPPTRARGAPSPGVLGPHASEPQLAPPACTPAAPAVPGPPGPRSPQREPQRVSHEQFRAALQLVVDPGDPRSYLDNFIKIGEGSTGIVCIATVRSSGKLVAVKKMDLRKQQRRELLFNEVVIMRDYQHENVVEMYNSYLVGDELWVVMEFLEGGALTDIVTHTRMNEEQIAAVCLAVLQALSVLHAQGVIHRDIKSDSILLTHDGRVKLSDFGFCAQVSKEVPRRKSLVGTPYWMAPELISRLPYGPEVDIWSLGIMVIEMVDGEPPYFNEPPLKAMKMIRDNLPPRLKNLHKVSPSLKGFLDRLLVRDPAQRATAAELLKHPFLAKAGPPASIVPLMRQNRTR
Procedure: as §3

5-HT5A (h) = target: T12, 5-HT5A (h) (Homo sapiens, UniProt P47898); assay: Cerep panel; assay type: binding
T12 construct: purchased Cerep (receptors, ion channels, transporters); Eurofins Panlabs (kinases)
Procedure: as §2

M1 (h) = target: T13, M1 (h) (Homo sapiens, UniProt P11229); assay: Cerep panel; assay type: binding
T13 construct: purchased Cerep (receptors, ion channels, transporters); Eurofins Panlabs (kinases)
Procedure: as §2

FXR = target: T14, FXR (Homo sapiens, UniProt Q96RI1); assay: nuclear receptor cellular GAL4 reporter assay; assay type: cell-based; conditions: agonist and antagonist mode; read-out: potency in agonist and antagonist mode
T14 construct: expressed in transfected cells

[3] = tested on: ex vivo stimulated IL-17A production in the blood; assay: mouse PK/PD model, ex vivo stimulated IL-17A production; conditions: 100 mg/kg oral; for inhibition at 100 mg/kg: 5-fold diluted blood
Description: Compound concentrations are also listed as undiluted (measured) and diluted (extrapolated) in Supplementary Table S2.

GSK3β(h) = target: T15, GSK3β(h) (Homo sapiens, UniProt P49841); assay: Kinase panel; assay type: biochemical
T15 construct: purchased Cerep (receptors, ion channels, transporters); Eurofins Panlabs (kinases)
T15 sequence (P49841 whole entry): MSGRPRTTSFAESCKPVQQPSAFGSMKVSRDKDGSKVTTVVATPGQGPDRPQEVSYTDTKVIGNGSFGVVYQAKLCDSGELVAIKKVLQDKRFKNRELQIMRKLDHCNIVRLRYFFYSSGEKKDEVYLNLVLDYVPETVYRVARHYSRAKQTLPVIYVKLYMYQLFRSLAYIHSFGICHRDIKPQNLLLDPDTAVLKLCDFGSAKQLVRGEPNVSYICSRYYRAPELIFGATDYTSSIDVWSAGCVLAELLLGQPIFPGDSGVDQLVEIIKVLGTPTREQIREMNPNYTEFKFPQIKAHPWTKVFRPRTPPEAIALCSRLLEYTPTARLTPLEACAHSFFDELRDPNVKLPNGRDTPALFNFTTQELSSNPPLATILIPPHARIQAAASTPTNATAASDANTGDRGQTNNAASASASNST
Procedure: as §3

Sprague–Dawley rats = assay: 1-month GLP toxicity study in rats; assay type: in vivo; conditions: rat; recovered after 1-month recovery period
Procedure: (§1) The type of study plan was reviewed and agreed by the Laboratory Animal Welfare Officer and the Animal Ethical Committee (officially known as Dierexperimentencommissie (DEC) Charles River Den Bosch), as required by the Dutch Act on Animal Experimentation (February 1997). Both rat and dog studies were performed in AALAC accredited Charles River Laboratories in the Netherlands. Studies in rats were conducted with 0, 25, 100, and 400 mg/kg per day (n = 10/sex/group) for 1 month. An additional 5 animals/sex in vehicle and high dose were allowed to continue for a 1-month treatment-free recovery period. Studies in dogs were conducted with 0, 3, 10, and 30 mg/kg per day (n = 4/sex/group) for 1 month. A treatment-free recovery period of 1 month (additional 2 dogs/sex/group) was included for both vehicle controls and high dose groups. […] Rats and dogs were examined for mortality, clinical signs, ophthalmoscopic changes, body weight, food consumption, hematology, clinical chemistry, anatomic pathology, and toxicokinetics. In addition, dogs were examined for electrocardiographic changes. Rats and dogs were also assessed for reversal of any effects following a 1-month recovery period. These studies were conducted in compliance with good laboratory practice (GLP) regulations.

[4] = 1-month GLP toxicity study in rats; assay type: in vivo; conditions: Sprague-Dawley, in vivo, rat; for AUC(0-t) / Cmax: po, 400 mg/kg/day; for AUC(0-t): read-out: AUC0-24 h at NOAEL; for Cmax: read-out: Cmax at NOAEL
Procedure: as §1

Flt3(h) = target: T16, Flt3(h) (Homo sapiens, UniProt P36888); assay: Kinase panel; assay type: biochemical
T16 construct: purchased Cerep (receptors, ion channels, transporters); Eurofins Panlabs (kinases)
Procedure: as §3

dogs = assay: chronic dosing up to 9 months in dogs; assay type: in vivo; conditions: dog, data not shown, reversible
Description: This is consistent with the reported physiological role of RORγt as a critical molecule in controlling the survival of thymocytes[7],[66]. JNJ-61803534-induced thymocyte apoptosis was reversible and was deemed non-adverse alterations.

A1 (h) = target: T17, A1 (h) (Homo sapiens, UniProt P30542); assay: Cerep panel; assay type: binding
T17 construct: purchased Cerep (receptors, ion channels, transporters); Eurofins Panlabs (kinases)
T17 sequence (P30542 whole entry): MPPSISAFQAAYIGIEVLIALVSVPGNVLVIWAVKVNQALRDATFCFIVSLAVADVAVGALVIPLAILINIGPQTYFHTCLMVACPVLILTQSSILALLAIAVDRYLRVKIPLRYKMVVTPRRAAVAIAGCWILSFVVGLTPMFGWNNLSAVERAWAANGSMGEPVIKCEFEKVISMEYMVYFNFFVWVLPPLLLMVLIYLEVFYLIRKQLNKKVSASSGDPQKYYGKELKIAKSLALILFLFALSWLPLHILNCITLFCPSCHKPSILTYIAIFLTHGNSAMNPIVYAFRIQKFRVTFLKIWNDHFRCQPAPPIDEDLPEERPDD
Procedure: as §2

IGF-1R(h) = target: T18, IGF-1R(h) (Homo sapiens, UniProt P08069); assay: Kinase panel; assay type: biochemical
T18 construct: purchased Cerep (receptors, ion channels, transporters); Eurofins Panlabs (kinases)
T18 sequence (P08069 31-1367): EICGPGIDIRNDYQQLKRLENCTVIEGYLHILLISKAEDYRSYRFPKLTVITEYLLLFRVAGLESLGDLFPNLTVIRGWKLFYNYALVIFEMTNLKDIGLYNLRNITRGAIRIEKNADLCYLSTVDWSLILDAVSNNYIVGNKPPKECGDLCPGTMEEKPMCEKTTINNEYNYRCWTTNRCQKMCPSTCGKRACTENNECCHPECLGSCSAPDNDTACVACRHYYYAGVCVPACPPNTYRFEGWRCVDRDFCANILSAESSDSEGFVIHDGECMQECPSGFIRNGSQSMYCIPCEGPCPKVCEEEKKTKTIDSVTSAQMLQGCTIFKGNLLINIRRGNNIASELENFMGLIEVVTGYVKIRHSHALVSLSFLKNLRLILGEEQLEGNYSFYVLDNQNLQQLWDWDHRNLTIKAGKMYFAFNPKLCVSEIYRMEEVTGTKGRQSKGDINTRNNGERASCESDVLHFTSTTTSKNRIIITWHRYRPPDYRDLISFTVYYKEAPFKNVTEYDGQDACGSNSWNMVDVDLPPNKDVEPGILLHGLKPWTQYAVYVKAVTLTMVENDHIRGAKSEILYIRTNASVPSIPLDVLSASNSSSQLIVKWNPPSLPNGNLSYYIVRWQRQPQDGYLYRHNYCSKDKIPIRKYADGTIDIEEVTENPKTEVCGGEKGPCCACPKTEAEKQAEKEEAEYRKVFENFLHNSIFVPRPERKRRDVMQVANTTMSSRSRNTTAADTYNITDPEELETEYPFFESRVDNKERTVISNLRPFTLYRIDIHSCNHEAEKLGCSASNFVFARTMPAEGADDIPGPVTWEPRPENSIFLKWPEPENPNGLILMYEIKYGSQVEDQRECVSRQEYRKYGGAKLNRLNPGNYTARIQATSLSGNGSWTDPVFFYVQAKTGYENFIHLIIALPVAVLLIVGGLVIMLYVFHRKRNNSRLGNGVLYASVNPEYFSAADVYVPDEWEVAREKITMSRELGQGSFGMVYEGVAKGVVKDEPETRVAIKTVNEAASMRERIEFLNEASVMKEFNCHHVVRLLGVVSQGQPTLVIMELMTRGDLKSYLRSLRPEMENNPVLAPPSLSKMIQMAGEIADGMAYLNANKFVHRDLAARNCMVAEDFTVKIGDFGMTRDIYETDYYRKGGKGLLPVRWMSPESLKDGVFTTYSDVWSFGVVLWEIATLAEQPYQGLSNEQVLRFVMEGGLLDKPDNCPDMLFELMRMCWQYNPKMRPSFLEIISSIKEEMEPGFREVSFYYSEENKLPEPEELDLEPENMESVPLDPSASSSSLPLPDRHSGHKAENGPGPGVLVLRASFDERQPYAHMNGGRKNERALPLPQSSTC
Procedure: as §3

EphA2(h) = target: T19, EphA2(h) (Homo sapiens, UniProt P29317); assay: Kinase panel; assay type: biochemical
T19 construct: purchased Cerep (receptors, ion channels, transporters); Eurofins Panlabs (kinases)
Procedure: as §3

Blk(h) = target: T20, Blk(h) (Homo sapiens, UniProt P51451); assay: Kinase panel; assay type: biochemical
T20 construct: purchased Cerep (receptors, ion channels, transporters); Eurofins Panlabs (kinases)
Procedure: as §3

IRAK4(h) = target: T21, IRAK4(h) (Homo sapiens, UniProt Q9NWZ3); assay: Kinase panel; assay type: biochemical
T21 construct: purchased Cerep (receptors, ion channels, transporters); Eurofins Panlabs (kinases)
Procedure: as §3

T1 sequence (P28223 whole entry): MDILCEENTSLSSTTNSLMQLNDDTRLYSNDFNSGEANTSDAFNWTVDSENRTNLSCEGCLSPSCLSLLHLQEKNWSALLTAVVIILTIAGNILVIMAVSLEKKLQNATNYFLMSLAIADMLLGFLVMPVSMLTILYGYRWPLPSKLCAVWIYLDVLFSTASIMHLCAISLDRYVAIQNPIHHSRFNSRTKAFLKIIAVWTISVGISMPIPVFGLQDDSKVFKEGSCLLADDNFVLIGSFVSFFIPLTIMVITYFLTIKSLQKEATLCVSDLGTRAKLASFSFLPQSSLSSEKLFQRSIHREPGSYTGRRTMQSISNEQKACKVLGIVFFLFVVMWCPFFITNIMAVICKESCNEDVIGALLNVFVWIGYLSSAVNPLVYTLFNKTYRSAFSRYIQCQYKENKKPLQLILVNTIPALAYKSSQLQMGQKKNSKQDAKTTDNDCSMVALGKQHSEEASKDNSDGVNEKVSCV

Question: What does the source list for `CC1CCCN1C(=O)c1nc(C(=O)NCC(C)(C)O)sc1-c1ccc(C(O)(C(F)(F)F)C(F)(F)F)c(Cl)c1Cl` (stereo not drawn) [JNJ-61803534]?
Answer: inhibition at 1 µM (5-HT2A (h)): < 10%; inhibition at 10 µM (5-HT2A (h)): < 10%; IC50 (RXRα): > 1500 nM; inhibition at 1 µM [1]: < 10%; inhibition at 10 µM [1]: 12.2%; genetic toxicity (rat bone marrow): negative; IC50 (VDR): > 1500 nM; activity at 1 µM (CLK2(h)): 108%; activity at 10 µM (CLK2(h)): 99%; inhibition at 1 µM (H2 (h)): < 10%; inhibition at 10 µM (H2 (h)): 16.6%; activity at 1 µM (CaMKIIβ(h)): 89%; activity at 10 µM (CaMKIIβ(h)): 92%; inhibition at 1 µM (ETA (h)): < 10%; inhibition at 10 µM (ETA (h)): < 10%; inhibition at 1 µM (5-HT1B): < 10%; inhibition at 10 µM (5-HT1B): 15.6%; IC50 ([2]; read-out: IC50 (95% confidence intervals), IL-17A production): 19 nM; IC50 ([2]; read-out: IC50 (95% confidence intervals), IL-17F production): 22 nM; IC50 ([2]; read-out: IC50 (95% confidence intervals), IL-22 production): 27 nM; inhibition at 1 µM (M3 (h)): < 10%; inhibition at 10 µM (M3 (h)): < 10%; activity at 1 µM (PAK4(h)): 104%; activity at 10 µM (PAK4(h)): 103%; inhibition at 1 µM (5-HT5A (h)): < 10%; inhibition at 10 µM (5-HT5A (h)): < 10%; inhibition at 1 µM (M1 (h)): < 10%; inhibition at 10 µM (M1 (h)): < 10%; IC50 (FXR): > 1500 nM; inhibition at 100 mg/kg ([3]; 1 h post-dose): 86 ± 6.7%; inhibition at 100 mg/kg ([3]; 2 h post-dose): 89 ± 7.1%; inhibition at 100 mg/kg ([3]; 4 h post-dose): 72 ± 14%; inhibition at 100 mg/kg ([3]; 7 h post-dose): 75 ± 7.5%; inhibition at 100 mg/kg ([3]; 12 h post-dose): 62 ± 17%; inhibition at 100 mg/kg ([3]; 18 h post-dose, without statistical significance): 30 ± 60%; EC50 at 100 mg/kg ([3]; concentration in 5-fold diluted plasma, read-out: compound concentration for 50% inhibition of ex vivo IL-17A): 240 to 860 nM; activity at 1 µM (GSK3β(h)): 111%; activity at 10 µM (GSK3β(h)): 105%; lymphocyte apoptosis in thymus (Sprague–Dawley rats): dose-dependent lymphocyte apoptosis in thymus was observed; AUC(0-t) ([4]; female): 376 µg·h/mL; Cmax ([4]; female): 24200 ng/mL; AUC(0-t) ([4]; male): 310 µg·h/mL; Cmax ([4]; male): 29600 ng/mL; NOAEL at 1 month ([4]; both sexes, 1 month oral, highest dose tested, read-out: no-observed-adverse-effect level (NOAEL)): 400 mg/kg/day; activity at 1 µM (Flt3(h)): 84%; activity at 10 µM (Flt3(h)): 103%; thymus finding (dogs): increase in medium-sized thymocytes/mitoses; inhibition at 1 µM (A1 (h)): < 10%; inhibition at 10 µM (A1 (h)): < 10%; activity at 1 µM (IGF-1R(h)): 95%; activity at 10 µM (IGF-1R(h)): 106%; activity at 1 µM (EphA2(h)): 99%; activity at 10 µM (EphA2(h)): 102%; activity at 1 µM (Blk(h)): 95%; activity at 10 µM (Blk(h)): 102%; activity at 1 µM (IRAK4(h)): 113%; activity at 10 µM (IRAK4(h)): 112%
